This is an account of results in patent publication US5576174A, “Catalytic antibody with primary amine cofactor” (The Scripps Research Institute, priority 1995, dated 1996).

The subject of experiment [1] is catalytic antibody 72D4 (anti-2, monoclonal antibody raised against quaternary piperidinium hapten 2). As to the kind of experiment: Antibody 72D4 catalysed aldol addition of acetone to aldehyde 10a giving 11a, amine 7 as cofactor (RP-HPLC). It counts as biochemical. The note with it: for Km: random bimolecular model for amine 7 and acetone; for effective molarity kcat/kapp (7): versus background reaction catalysed by 7 alone, aldehyde 10a at 200 mM. The protocol:
The aldol reaction of 10a and acetone to 11a with amine 7 as cofactor was followed by direct measurement of the formation of 11a by reverse-phase HPLC. The observed background reaction was first order in acetone (0.5% to 10% v/v) and aldehyde 10a (100-2000 mM), and was also first order in catalyst, either the amine cofactor 7 (50-1500 mM) as free base or hydroxide. The corresponding rate constants are kapp (7) (third order) and kapp (OH^-) (second order) for the apparent rate constant for each process at different pH, and k(7) and kOH^- are the third order rate constants for catalysis by amine 7 as free base and hydroxide, respectively (FIG. 1).
For acetone and aldehyde 10a, the background kuncat is the second order rate constant of their apparent bimolecular reaction, catalyzed by both hydroxide and amine 7 ([7]=0.2 mM and 0.4 mM, respectively).
Aldehydes 10a-10e were used as 25 mM stock solutions in 1:1 acetonitrile/water of the RP-HPLC purified samples. Cofactor 7 was used as 25 mM stock solution in pure water of the RP-HPLC purified trifluoroacetate salt. Antibody 72D4 was purified to homogeneity (SDS PAGE) by ion exchange and Protein G chromatography as described before,^4a at 8-12 mg/mL stock solutions in either bicine (50 mM, pH 8.0) or phosphate (50 mM, pH 7.4) with 100 mM NaCl.
The setup for the kinetics of FIG. 2 is representative: a stock solution (1.8 mL) containing the antibody ([…]) and acetone (1.11% v/v) in 50 mM bicine, 100 mM NaCl, pH 8.0 was separated into four portions of […]. To each was added 3.6 mL of a 25 mM stock solution of each of the aldehydes 10a to 10d. Each […] portion was further separated into four 90 mL portions and 10 mL of solutions of amine 7 in 50 mM bicine, 100 mM NaCl (1 mM, 2 mM, 4 mM, 8 mM) were added. Finally, 50 mL of each 100 mL sample was added to 0.5 mL of a 25 mM stock solution of hapten 12 in water. In each manipulation, the samples were vigorously shaken using a Vortex shaker to ensure homogeneity.

Experiment [2] has the same test system. As to the kind of experiment: Antibody 72D4 catalysed formation of α-aminonitrile 17 from amine 7, acetone and cyanide. It counts as biochemical.
Method: Conditions: 50 mM bicine, 0.2M NaCN, pH 9.0, 20° C. […] The reaction was initiated by addition of a concentrated stock solution of either amine 7 or buffered NaCN (no difference was noted). As above, pairs of identical antibody solutions, with and without hapten 12 as inhibitor, were used for measuring the background and catalyzed reaction rates, respectively. 15 mL samples were quenched at 45 sec intervals by mixing with 15 mL 0.5N TFA in water, immediately frozen, and later analyzed by RP-HPLC (C-18 as above, 92.5% H2 O, 7.5% CH3 CN, tR (17)=7.8 minutes) against an internal standard (4-hydroxy-benzoic acid, tR =9.4 minutes). […] The background rate kuncat was derived from the inhibited samples (V vs. [S], 6 points, r^2 =1.0). KM and Vmax were obtained from the Lineweaver-Burk plot of 1/V vs. 1/[S] as above (50, 100, 200, 400, 800, 1600 mM 7, 6 points, r^2 =0.98).

In the case of `CC(=O)Nc1ccc(CC(C)C=O)cc1` (racemic) [aldehyde 10a, 4-(3'-oxo-2'-methyl-prop-1'-yl)-acetanilide], the “rate acceleration kcat/kuncat (aldehyde 10a)” value in experiment [1] (apparent effective molarity, aldehyde 10a varied, [7]=0.4 mM, table 1) was determined as 102 M. Also, the kcat in experiment [1] (pH 8.0, antibody-acetone-amine complex reacting with aldehyde 10a (200 mM fixed)) came out at 0.014 M⁻¹ s⁻¹; in experiment [1] (pH 9.0, antibody-acetone-amine complex reacting with aldehyde 10a), 0.053 M⁻¹ s⁻¹.
For `CC(C)=O` [acetone], in experiment [1] (apparent effective molarity, acetone varied, [7]=0.2 mM, table 1), the “rate acceleration kcat/kuncat (acetone)” value is on record as 123 M. For the same molecule, the Km in experiment [1] (pH 8.0, 200 mM fixed aldehyde 10a, read-out: KM (acetone)) amounted to 19000 µM.
In the case of `NCc1ccc(C(=O)NCCO)cc1` [amine 7, N(hydroxyethyl)-4(aminomethyl)-benzamide], the Km in experiment [1] (pH 8.0, 200 mM fixed aldehyde 10a, read-out: KM (7)) was 45 µM; in experiment [1] (pH 9.0, read-out: KM (7)), 95 µM; in experiment [2] (pH 9.0, 1% v/v acetone, 0.2M CN-, 20° C., amine 7 varied 50-1600 mM) it was 130 µM. In addition, the “effective molarity kcat/kapp (7)” value in experiment [1] (pH 8.0) worked out at 370 M; in experiment [1] (pH 9), 440 M. Moreover, in experiment [1] (specific activation of the cofactor upon binding to the antibody, table 1), the “rate acceleration kcat/kuncat (cofactor 7)” value is 950. The kcat in experiment [2] (pH 9.0, 1% v/v acetone, 0.2M CN-, 20° C., amine 7 varied) worked out at 0.012 s⁻¹.
On to `C[N+]1(Cc2ccc(C(=O)NCCO)cc2)CCCCC1` [hapten 12, reference compound], for which the “inhibition of catalytic activity by addition of hapten 12” value in experiment [1] (250 mM hapten 12 in the assay set-up) was “quantitatively inhibited”. Also, in experiment [2] (formation of α-aminonitrile 17), the “inhibition of catalysis by hapten 12” value was “quantitatively inhibited”.
